Data reported in US9062078B2, “Substituted 7-azabicyles and their use as orexin receptor modulators” (priority 2013, dated 2015).
Where two headings read alike, the source gives them in different places.

How the values were obtained:
[1] = biological target: human orexin 1 receptor (Homo sapiens (Human), UniProt O43613); assay: Human orexin 1 receptor radioligand binding (competitive, [3H]-SB674042, CHO cell preparations)
[2] = biological target: human orexin 2 receptor (Homo sapiens (Human), UniProt O43614); assay: Human orexin 2 receptor radioligand binding (competitive, [3H]-EMPA, HEK293 cell preparations)
[3] = biological target: rat orexin 1 receptor (Rattus norvegicus, UniProt P56718); assay: Rat orexin 1 receptor radioligand binding (competitive, [3H]-SB674042, HEK293 cell preparations)
[4] = human orexin 1 receptor, [3H]-SB674042 competition binding, read-out: hOX1 Ki (nm)
[5] = human orexin 2 receptor, [3H]-EMPA competition binding, read-out: hOX2 Ki (nm)
[6] = rat orexin 1 receptor, [3H]-SB674042 competition binding, read-out: rOX1 Ki (nm)

human orexin 2 receptor, sequence (O43614 whole entry): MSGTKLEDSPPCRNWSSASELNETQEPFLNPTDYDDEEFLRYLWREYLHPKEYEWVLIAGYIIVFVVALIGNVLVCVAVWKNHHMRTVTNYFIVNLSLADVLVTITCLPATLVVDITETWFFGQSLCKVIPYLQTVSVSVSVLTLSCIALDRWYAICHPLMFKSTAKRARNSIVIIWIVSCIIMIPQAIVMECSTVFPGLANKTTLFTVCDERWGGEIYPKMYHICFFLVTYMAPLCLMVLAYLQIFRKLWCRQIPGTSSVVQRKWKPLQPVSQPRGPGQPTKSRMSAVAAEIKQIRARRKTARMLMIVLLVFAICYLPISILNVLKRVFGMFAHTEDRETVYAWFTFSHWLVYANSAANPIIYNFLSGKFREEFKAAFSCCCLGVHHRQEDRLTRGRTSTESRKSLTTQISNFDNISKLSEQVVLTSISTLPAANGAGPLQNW
human orexin 1 receptor, sequence (O43613 whole entry): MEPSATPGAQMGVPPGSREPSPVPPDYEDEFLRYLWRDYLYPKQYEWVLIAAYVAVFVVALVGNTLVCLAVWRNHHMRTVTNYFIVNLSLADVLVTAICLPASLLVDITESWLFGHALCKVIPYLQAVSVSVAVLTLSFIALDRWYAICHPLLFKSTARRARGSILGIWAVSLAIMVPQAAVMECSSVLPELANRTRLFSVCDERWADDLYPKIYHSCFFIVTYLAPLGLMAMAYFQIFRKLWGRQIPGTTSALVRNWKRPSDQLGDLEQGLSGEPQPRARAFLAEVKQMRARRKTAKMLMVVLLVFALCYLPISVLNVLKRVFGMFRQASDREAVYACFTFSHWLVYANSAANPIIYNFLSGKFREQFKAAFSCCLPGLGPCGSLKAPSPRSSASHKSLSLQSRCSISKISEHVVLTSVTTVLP

Compound `Cc1ccc(N2CCCC2)c(C(=O)N2C3CCC2C(COc2ccc(F)cn2)C3)n1` (racemic) [Example 68, (±)-(2-(((5-fluoropyridin-2-yl)oxy)methyl)-7-azabicyclo[2.2.1]heptan-7-yl)(6-methyl-3-(pyrrolidin-1-yl)pyridin-2-yl)methanone] has a Ki [1, 4] of 22 nM, a Ki [2, 5] of 576 nM and a Ki [3, 6] of 27 nM.

In the case of `Cc1cc(-c2ccc(C)nc2C(=O)N2C3CCC2C(COc2ccc(F)cn2)C3)on1` (racemic) [Example 69, (±)-(2-(((5-fluoropyridin-2-yl)oxy)methyl)-7-azabicyclo[2.2.1]heptan-7-yl)(6-methyl-3-(3-methylisoxazol-5-yl)pyridin-2-yl)methanone], the Ki ([1]; hOX1 Ki (nm)) is reported as 64 nM, the Ki [2, 5] is reported as 174 nM and the Ki ([3]; rOX1 Ki (nm)) is reported as 40 nM.

`Cc1ccc(-n2cccn2)c(C(=O)N2C3CCC2C(COc2ccc(F)cn2)C3)n1` (racemic) [Example 70, (±)-(2-(((5-fluoropyridin-2-yl)oxy)methyl)-7-azabicyclo[2.2.1]heptan-7-yl)(6-methyl-3-(1H-pyrazol-1-yl)pyridin-2-yl)methanone] showed a Ki [1, 4] of 62 nM, a Ki [2, 5] of 624 nM and a Ki [3, 6] of 88 nM.

For `Cc1ccnc(C(=O)N2C3CCC2C(COc2ccccn2)C3)c1-n1nccn1` (racemic) [Example 72, (±)-(4-methyl-3-(2H-1,2,3-triazol-2-yl)pyridin-2-yl)(2-((pyridin-2-yloxy)methyl)-7-azabicyclo[2.2.1]heptan-7-yl)methanone], the Ki [1, 4] was 162 nM, the Ki [2, 5] was 2400 nM and the Ki [3, 6] was 137 nM.

`CCOc1ccc2cccnc2c1C(=O)N1C2CCC1C(COc1ccccn1)C2` (racemic) [Example 75, (±)-(7-ethoxyquinolin-8-yl)(2-((pyridin-2-yloxy)methyl)-7-azabicyclo[2.2.1]heptan-7-yl)methanone] showed a Ki [1, 4] of 7 nM, a Ki [2, 5] of 220 nM and a Ki [3, 6] of 18 nM.

In the case of `Cn1cc(-c2ccccc2)c(C(=O)N2C3CCC2C(COc2ccccn2)C3)n1` (racemic) [Example 77, (±)-(1-methyl-4-phenyl-1H-pyrazol-3-yl)(2-((pyridin-2-yloxy)methyl)-7-azabicyclo[2.2.1]heptan-7-yl)methanone], the Ki [1, 4] is reported as 66 nM, the Ki ([2]; hOX2 Ki (nm)) is reported as 867 nM and the Ki [3, 6] is reported as 103 nM.

For `COc1ccc2cccnc2c1C(=O)N1C2CCC1C(COc1ccccn1)C2` (racemic) [Example 88, (±)-(7-methoxyquinolin-8-yl)(2-((pyridin-2-yloxy)methyl)-7-azabicyclo[2.2.1]heptan-7-yl)methanone], the Ki [1, 4] was 49 nM, the Ki [2, 5] was 690 nM and the Ki [3, 6] was 47 nM.

In the case of `CCOc1ccc2ccccc2c1C(=O)N1C2CCC1C(COc1ccccn1)C2` (racemic) [Example 89, (±)-(2-ethoxynaphthalen-1-yl)(2-((pyridin-2-yloxy)methyl)-7-azabicyclo[2.2.1]heptan-7-yl)methanone], the Ki [1, 4] is reported as 10 nM, the Ki [2, 5] is reported as 38 nM and the Ki [3, 6] is reported as 11 nM.

Compound `Cc1nc(C(=O)N2C3CCC2C(COc2ccccn2)C3)c(-c2ccccc2)s1` (racemic) [Example 92, (±)-(2-methyl-5-phenylthiazol-4-yl)(2-((pyridin-2-yloxy)methyl)-7-azabicyclo[2.2.1]heptan-7-yl)methanone] has a Ki ([1]; hOX1 Ki (nm)) of 11 nM, a Ki [2, 5] of 218 nM and a Ki ([3]; rOX1 Ki (nm)) of 20 nM.

With `Cc1ccc(-c2ncco2)c(C(=O)N2C3CCC2C(COc2ccccn2)C3)n1` (racemic) [Example 93, (±)-(6-methyl-3-(oxazol-2-yl)pyridin-2-yl)(2-((pyridin-2-yloxy)methyl)-7-azabicyclo[2.2.1]heptan-7-yl)methanone] the Ki [1, 4] was 73 nM, the Ki ([2]; hOX2 Ki (nm)) was 836 nM and the Ki [3, 6] was 40 nM.

Compound `Cc1cc(-c2ccc(C)nc2C(=O)N2C3CCC2C(COc2ccccn2)C3)on1` (racemic) [Example 94, (±)-(6-methyl-3-(3-methylisoxazol-5-yl)pyridin-2-yl)(2-((pyridin-2-yloxy)methyl)-7-azabicyclo[2.2.1]heptan-7-yl)methanone] has a Ki [1, 4] of 200 nM, a Ki [2, 5] of 2100 nM and a Ki [3, 6] of 170 nM.

In the case of `Cc1cnn(-c2ccc(C)nc2C(=O)N2C3CCC2C(COc2ccccn2)C3)c1` (racemic) [Example 96, (±)-(6-methyl-3-(4-methyl-1H-pyrazol-1-yl)pyridin-2-yl)(2-((pyridin-2-yloxy)methyl)-7-azabicyclo[2.2.1]heptan-7-yl)methanone], the Ki [1, 4] is reported as 76 nM, the Ki [2, 5] is reported as 950 nM and the Ki [3, 6] is reported as 70 nM.

For `Cc1ccc(N2CCCC2)c(C(=O)N2C3CCC2C(COc2ccccn2)C3)n1` (racemic) [Example 97, (±)-(6-methyl-3-(pyrrolidin-1-yl)pyridin-2-yl)(2-((pyridin-2-yloxy)methyl)-7-azabicyclo[2.2.1]heptan-7-yl)methanone], the Ki [1, 4] was 32 nM, the Ki [2, 5] was 840 nM and the Ki [3, 6] was 35 nM.

Compound `COc1cccc(-n2nccn2)c1C(=O)N1C2CCC1C(COc1ccc(F)cn1)C2` (racemic) [Example 108, (±)-(2-(((5-fluoropyridin-2-yl)oxy)methyl)-7-azabicyclo[2.2.1]heptan-7-yl)(2-methoxy-6-(2H-1,2,3-triazol-2-yl)phenyl)methanone] has a Ki [1, 4] of 12 nM, a Ki [2, 5] of 12 nM and a Ki [3, 6] of 10 nM.

`O=C(c1cc(F)ccc1-c1ccn[nH]1)N1C2CCC1C(COc1ccc(F)cn1)C2` (racemic) [Example 109, (±)-(5-fluoro-2-(1H-pyrazol-5-yl)phenyl)(2-(((5-fluoropyridin-2-yl)oxy)methyl)-7-azabicyclo[2.2.1]heptan-7-yl)methanone] showed a Ki ([1]; hOX1 Ki (nm)) of 20 nM, a Ki ([2]; hOX2 Ki (nm)) of 99 nM and a Ki ([3]; rOX1 Ki (nm)) of 29 nM.

In the case of `Cc1cccc(-n2nccn2)c1C(=O)N1C2CCC1C(COc1ccc(F)cn1)C2` (racemic) [Example 110, (±)-(2-(((5-fluoropyridin-2-yl)oxy)methyl)-7-azabicyclo[2.2.1]heptan-7-yl)(2-methyl-6-(2H-1,2,3-triazol-2-yl)phenyl)methanone], the Ki [1, 4] is reported as 67 nM, the Ki [2, 5] is reported as 94 nM and the Ki [3, 6] is reported as 54 nM.

With `COc1ccc(-n2nccn2)c(C(=O)N2C3CCC2C(COc2ccc(F)cn2)C3)c1` (racemic) [Example 114, (±)-(2-(((5-fluoropyridin-2-yl)oxy)methyl)-7-azabicyclo[2.2.1]heptan-7-yl)(5-methoxy-2-(2H-1,2,3-triazol-2-yl)phenyl)methanone] the Ki ([1]; hOX1 Ki (nm)) was 48 nM, the Ki ([2]; hOX2 Ki (nm)) was 73 nM and the Ki ([3]; rOX1 Ki (nm)) was 20 nM.

Work on `O=C(c1c(F)cccc1-n1nccn1)N1C2CCC1C(COc1ccc(F)cn1)C2` (racemic) [Example 115, (±)-(2-fluoro-6-(2H-1,2,3-triazol-2-yl)phenyl)(2-(((5-fluoropyridin-2-yl)oxy)methyl)-7-azabicyclo[2.2.1]heptan-7-yl)methanone] yielded a Ki ([1]; hOX1 Ki (nm)) of 78 nM, a Ki ([2]; hOX2 Ki (nm)) of 108 nM and a Ki ([3]; rOX1 Ki (nm)) of 57 nM.

For `O=C(c1ccc(F)cc1-n1nccn1)N1C2CCC1C(COc1ccc(F)cn1)C2` (racemic) [Example 116, (±)-(4-fluoro-2-(2H-1,2,3-triazol-2-yl)phenyl)(2-(((5-fluoropyridin-2-yl)oxy)methyl)-7-azabicyclo[2.2.1]heptan-7-yl)methanone], the Ki [1, 4] was 250 nM, the Ki [2, 5] was 315 nM and the Ki [3, 6] was 142 nM.

`O=C(c1cccc(F)c1-n1nccn1)N1C2CCC1C(COc1ccc(F)cn1)C2` (racemic) [Example 117, (±)-(3-fluoro-2-(2H-1,2,3-triazol-2-yl)phenyl)(2-(((5-fluoropyridin-2-yl)oxy)methyl)-7-azabicyclo[2.2.1]heptan-7-yl)methanone] was tested, and the Ki ([1]; hOX1 Ki (nm)) was 82 nM, the Ki [2, 5] was 245 nM and the Ki ([3]; rOX1 Ki (nm)) was 62 nM.
